Measured values reported in BindingDB's records for patent US10053463 (Janssen Pharmaceutica NV, 2018).

Target: T1, P2X purinoceptor 7 (Homo sapiens, UniProt Q99572)
T1 sequence (Q99572 whole entry): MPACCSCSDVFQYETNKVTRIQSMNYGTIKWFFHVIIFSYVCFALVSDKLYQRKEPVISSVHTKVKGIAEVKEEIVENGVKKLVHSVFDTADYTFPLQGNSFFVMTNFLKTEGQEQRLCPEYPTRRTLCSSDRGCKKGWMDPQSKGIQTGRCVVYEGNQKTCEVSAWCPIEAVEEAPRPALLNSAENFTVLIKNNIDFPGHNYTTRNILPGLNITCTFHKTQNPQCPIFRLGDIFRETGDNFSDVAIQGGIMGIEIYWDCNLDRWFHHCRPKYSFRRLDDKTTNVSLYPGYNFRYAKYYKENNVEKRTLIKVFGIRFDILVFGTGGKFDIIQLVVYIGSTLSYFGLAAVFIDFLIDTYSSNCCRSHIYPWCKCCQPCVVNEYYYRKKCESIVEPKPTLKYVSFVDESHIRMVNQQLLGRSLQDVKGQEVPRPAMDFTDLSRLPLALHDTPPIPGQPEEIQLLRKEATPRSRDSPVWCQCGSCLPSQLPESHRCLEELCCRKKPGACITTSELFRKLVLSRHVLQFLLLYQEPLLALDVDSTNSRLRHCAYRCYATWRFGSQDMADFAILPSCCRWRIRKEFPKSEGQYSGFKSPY
Test: P2X7 Radioligand Binding
Description: human or rat P2X7-1321N1 cells were collected and frozen @−80° C. On the day of the experiment, cell membrane preparations were made according to standard published methods. […] The compound can be prepared as described in the literature. […] The assay was terminated by filtration (GF/B filters pre-soaked with 0.3% PEI) and washed with washing buffer (Tris-HCl 50 mM). The IC50 generated in the binding assay was corrected for tracer concentration and affinity of the tracer to derive at the affinity (K) of the test compounds. […] Data are analyzed and graphed on Graphpad Prism 5.

Compound	Ki [nM]
O=C1NCCn2c1nnc2-c1cnccn1 [US10053463, 1]	63.1
NNC(=O)c1ncccn1 [US10053463, 8]	20
NNC(=O)c1ccncn1 [US10053463, 9]	10
